According to PubChem BioAssay AID330 (DTP/NCI, 2004):
Where “and” joins values, the source holds several entries; their conditions need not be identical. Equal values may be shown once. Inconclusive results and toxic doses are left out. How the source made its calls: active means survival T/C of 150% or more; inactive means T/C below 125% in these data.

Test system: P388 leukemia ip, CD2F1 mice, survival T/C
Assay: NCI In Vivo Anticancer Drug Screen. Data for tumor model P388 Leukemia (intraperitoneal) in CD2F1 (CDF1) mice
Settings: endpoint: median survival time, higher = longer survival
In short: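 Mice carrying the transplanted tumor received test compound or vehicle. Survival was recorded in each group, and the value is the treated-group measurement divided by that of the vehicle-treated control group.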

[1] = dose: 12.5 mg/kg/injection, schedule: Q01DX005 (ip), vehicle: saline with Tween-80
[2] = dose: 25.0 mg/kg/injection, schedule: Q01DX005 (ip), vehicle: saline with Tween-80
[3] = dose: 50.0 mg/kg/injection, schedule: Q01DX005 (ip), vehicle: saline with Tween-80
[4] = dose: 100.0 mg/kg/injection, schedule: Q01DX005 (ip), vehicle: saline with Tween-80
[5] = dose: 200.0 mg/kg/injection, schedule: Q01DX005 (ip), vehicle: saline with Tween-80
[6] = dose: 60.0 mg/kg/injection, schedule: Q01DX005 (ip), vehicle: Klucel (hydroxypropylcellulose) (HPC)
[7] = dose: 120.0 mg/kg/injection, schedule: Q01DX005 (ip), vehicle: Klucel (hydroxypropylcellulose) (HPC)
[8] = dose: 240.0 mg/kg/injection, schedule: Q01DX005 (ip), vehicle: Klucel (hydroxypropylcellulose) (HPC)
[9] = dose: 60.0 mg/kg/injection, schedule: Q01DX005 (ip), vehicle: saline with Tween-80
[10] = dose: 120.0 mg/kg/injection, schedule: Q01DX005 (ip), vehicle: saline with Tween-80
[11] = dose: 240.0 mg/kg/injection, schedule: Q01DX005 (ip), vehicle: saline with Tween-80
[12] = dose: 50.0 mg/kg/injection, schedule: Q01DX005 (ip), vehicle: Klucel (hydroxypropylcellulose) (HPC)
[13] = dose: 100.0 mg/kg/injection, schedule: Q01DX005 (ip), vehicle: Klucel (hydroxypropylcellulose) (HPC)
[14] = dose: 200.0 mg/kg/injection, schedule: Q01DX005 (ip), vehicle: Klucel (hydroxypropylcellulose) (HPC)

Measured: T/C

Cc1cccc(O)c1C(=O)OC(C)c1cccc2nc3c(C(=O)O)cccc3nc12 (stereo not given)
inactive: dose: 0.5 mg/kg/injection, schedule: Q01DX005 (ip), vehicle: DMSO 108 % of control | dose: 1.0 mg/kg/injection, schedule: Q01DX005 (ip), vehicle: DMSO 92 % of control | dose: 2.0 mg/kg/injection, schedule: Q01DX005 (ip), vehicle: DMSO 100 % of control | dose: 4.0 mg/kg/injection, schedule: Q01DX005 (ip), vehicle: Klucel (hydroxypropylcellulose) (HPC) 100 % of control | dose: 6.25 mg/kg/injection, schedule: Q01DX005 (ip), vehicle: DMSO 119 % of control | dose: 8.0 mg/kg/injection, schedule: Q01DX005 (ip), vehicle: Klucel (hydroxypropylcellulose) (HPC) 101 % of control | dose: 12.5 mg/kg/injection, schedule: Q01DX005 (ip), vehicle: DMSO 114 % of control | dose: 16.0 mg/kg/injection, schedule: Q01DX005 (ip), vehicle: Klucel (hydroxypropylcellulose) (HPC) 101 % of control | dose: 32.0 mg/kg/injection, schedule: Q01DX005 (ip), vehicle: Klucel (hydroxypropylcellulose) (HPC) 87 % of control

Cc1cc(C=C2C(=O)NC(=S)NC2=O)cc(C)c1O
inactive: [1] 101 % of control and 96 % of control and 97 % of control | [2] 105 % of control and 106 % of control and 118 % of control

Cc1ccc2oc(C(=O)Nc3nnc(-c4ccccc4)s3)cc(=O)c2c1
inactive: [3] 96 % of control | [4] 94 % of control | [5] 94 % of control

Fc1cccc2c(SCCCCCCSc3c4ccccc4nc4c(F)cccc34)c3ccccc3nc12
inactive: [6] 89 % of control | [7] 89 % of control | [8] 90 % of control

CCCCOC(=O)NC(=O)c1cc2ccc(N(CC)CC)cc2oc1=O
inactive: [9] 95 % of control | [10] 87 % of control | [11] 87 % of control

O=C(NCCCCNCCCNC(=O)c1ccc([N+](=O)[O-])cc1)c1ccc([N+](=O)[O-])cc1
inactive: [9] 97 % of control | [10] 92 % of control | [11] 98 % of control

Cc1nn(C(=S)S)c(C)c1N=Nc1ccccc1C(F)(F)F
inactive: dose: 3.12 mg/kg/injection, schedule: Q04DX002 (ip), vehicle: saline with Tween-80 99 % of control and 102 % of control | dose: 6.25 mg/kg/injection, schedule: Q04DX002 (ip), vehicle: saline with Tween-80 100 % of control | dose: 12.5 mg/kg/injection, schedule: Q04DX002 (ip), vehicle: saline with Tween-80 108 % of control and 94 % of control | dose: 25.0 mg/kg/injection, schedule: Q04DX002 (ip), vehicle: saline with Tween-80 103 % of control and 86 % of control and 89 % of control | dose: 50.0 mg/kg/injection, schedule: Q04DX002 (ip), vehicle: saline with Tween-80 96 % of control | dose: 200.0 mg/kg/injection, schedule: Q04DX002 (ip), vehicle: saline with Tween-80 89 % of control | dose: 400.0 mg/kg/injection, schedule: Q04DX002 (ip), vehicle: saline with Tween-80 105 % of control

COCOc1cc(OCc2ccccc2)ccc1C(=O)/C=C/c1cc2c(cc1OCc1ccccc1)OCO2
inactive: dose: 100.0 mg/kg/injection, schedule: Q01DX001 (ip), vehicle: Klucel (hydroxypropylcellulose) (HPC) 105 % of control | dose: 200.0 mg/kg/injection, schedule: Q01DX001 (ip), vehicle: Klucel (hydroxypropylcellulose) (HPC) 102 % of control | dose: 400.0 mg/kg/injection, schedule: Q01DX001 (ip), vehicle: Klucel (hydroxypropylcellulose) (HPC) 105 % of control

CCCCCCCCCCCC1=c2o[nH]c2=C(c2ccccn2)C(=O)C1=O
inactive: [3] 94 % of control | [4] 86 % of control

CCS(=O)C(F)(F)C(F)Cl (stereo not given)
inactive: [3] 97 % of control | [4] 100 % of control | [5] 100 % of control

Cc1noc(NS(=O)(=O)c2ccc(N=c3c4ccccc4n(Cc4ccccc4)c4ccccc34)cc2)c1C
inactive: [3] 96 % of control | [4] 94 % of control | [5] 87 % of control

CCOC(=O)C1n2c(=O)n(-c3ccc(Cl)cc3)c(=O)n21
inactive: [12] 96 % of control | [13] 87 % of control | [14] 92 % of control

C[Si](C)(C)CCCNCCNCCC[Si](C)(C)C
inactive: [9] 100 % of control | [10] 100 % of control

CC(=O)c1ccc(N(C)C(=O)C(Cl)Cl)cc1
inactive: dose: 100.0 mg/kg/injection, schedule: Q04DX003 (ip), vehicle: Klucel (hydroxypropylcellulose) (HPC) 100 % of control | dose: 200.0 mg/kg/injection, schedule: Q04DX003 (ip), vehicle: Klucel (hydroxypropylcellulose) (HPC) 100 % of control | dose: 400.0 mg/kg/injection, schedule: Q04DX003 (ip), vehicle: Klucel (hydroxypropylcellulose) (HPC) 100 % of control

CC(=NCC(=O)O)c1ccccc1
inactive: dose: 25.0 mg/kg/injection, schedule: Q01DX009 (ip), vehicle: saline 104 % of control | dose: 50.0 mg/kg/injection, schedule: Q01DX009 (ip), vehicle: saline 111 % of control | dose: 100.0 mg/kg/injection, schedule: Q01DX009 (ip), vehicle: saline 109 % of control

CCOC(=O)/C=C(\C)C(F)(F)F
inactive: dose: 15.0 mg/kg/injection, schedule: Q01DX005 (ip), vehicle: saline with Tween-80 95 % of control | dose: 30.0 mg/kg/injection, schedule: Q01DX005 (ip), vehicle: saline with Tween-80 100 % of control and 103 % of control | [9] 98 % of control and 104 % of control and 94 % of control | [10] 100 % of control and 101 % of control | [11] 106 % of control and 111 % of control

CC(C)(C)C1=CCN(C(C)(C)/C=N\O)CC1
inactive: [1] 97 % of control | [2] 100 % of control | [3] 100 % of control and 96 % of control

O=NNc1nc(-c2ccccn2)nc2ccccc12
inactive: dose: 3.12 mg/kg/injection, schedule: Q01DX009 (ip), vehicle: DMSO 109 % of control | dose: 6.25 mg/kg/injection, schedule: Q01DX009 (ip), vehicle: DMSO 94 % of control | dose: 12.5 mg/kg/injection, schedule: Q01DX009 (ip), vehicle: DMSO 105 % of control | dose: 25.0 mg/kg/injection, schedule: Q01DX009 (ip), vehicle: DMSO 102 % of control

CCCCCCNP1(NCCCCCC)=NP(NCCCCCC)(NCCCCCC)=NP(NCCCCCC)(NCCCCCC)=NP(NCCCCCC)(NCCCCCC)=N1
inactive: dose: 37.5 mg/kg/injection, schedule: Q01DX005 (ip), vehicle: Klucel (hydroxypropylcellulose) (HPC) 90 % of control | dose: 75.0 mg/kg/injection, schedule: Q01DX005 (ip), vehicle: Klucel (hydroxypropylcellulose) (HPC) 97 % of control

CC(C)(C)Oc1ccc(CC(NC(=O)OCC2c3ccccc3-c3ccccc32)C(=O)O)cc1 (stereo not given)
inactive: dose: 25.0 mg/kg/injection, schedule: Q01DX005 (ip), vehicle: Klucel (hydroxypropylcellulose) (HPC) 107 % of control | [12] 107 % of control and 109 % of control | [13] 120 % of control | [14] 104 % of control and 120 % of control

C/C(=N\NC(N)=S)c1cccc(/C(C)=N/NC(N)=S)n1
inactive: dose: 12.5 mg/kg/injection, schedule: Q04DX003 (ip), vehicle: saline with Tween-80 91 % of control | dose: 25.0 mg/kg/injection, schedule: Q04DX003 (ip), vehicle: saline with Tween-80 93 % of control | dose: 50.0 mg/kg/injection, schedule: Q04DX003 (ip), vehicle: saline with Tween-80 89 % of control

O=[N+]([O-])c1cc2ccc3ccoc3c2o1
inactive: [12] 90 % of control | [13] 97 % of control | [14] 96 % of control

COC(=O)C1=C(C(=O)OC)SC(=C2C3=C(SC(C(=O)OC)=C(C(=O)OC)S3)c3ccccc32)S1
inactive: dose: 30.0 mg/kg/injection, schedule: Q01DX005 (ip), vehicle: Klucel (hydroxypropylcellulose) (HPC) 96 % of control | [6] 87 % of control and 91 % of control | [7] 89 % of control | [8] 86 % of control
